{"source": "paper PMC8063233", "about": "(The Journal of Clinical Endocrinology and Metabolism, 2020)", "test": "Plasma pharmacokinetics on day 7 of each treatment period", "format": "in vivo, human", "conditions": "day 7, verinurad + febuxostat with placebo (n = 36)"}
{"smiles": "CC(C)(Sc1ccncc1-c1ccc(C#N)c2ccccc12)C(=O)O", "note": "[Verinurad, verinurad]", "values": [{"measurement": "tmax, Median (min-max)", "result": "4.00 (3.00-8.08) h"}]}
